Measurements: patent US11524012B1, “Quinolone analogs and their salts, compositions, and method for their use” (Senhwa Biosciences, Inc., priority 2018, dated 2022)

Assay: Stability study of lyophilized Compound I with mannitol (Method A / Method B samples)
Type: physicochemical
Experimental: […] Each 30 mL Type I, clear glass sample vial with 20 mm Freeze Dry Stoppers (Flurotech™ coated) contained 150 mg of Compound I.
At each time point, a vial was removed from the stored condition and reconstituted with 10 mL of D5W and analyzed by HPLC method as discussed in Example 5 at 1 month, 2 months, 3 months, and/or 6 months. In Tables 18-18e, RRT matches the Compounds as shown below.
Sample Preparation—Method A: 10% Mannitol solution was prepared by weighing 200 g±1.0 g of mannitol into glass beaker, adding approximately 1500 mL of WFI (water for injection) to the beaker and stirring until mannitol was dissolved. The mannitol solution was transferred to a 2 L volumetric flask and made to volume with WFI, then poured back to the original beaker to sir and mix further. 1M HCl solution was prepared by adding 16.4 mL of HCl (37%) to a 200 mL volumetric flask containing approximately 100 mL of WFI, adding WFI to make 200 mL in volume, and inverting to mix the prepared solution.
To a tared 2 L Schott bottle containing a magnetic stirrer and wrapped in aluminum foil, 1020 g±1.0 g of the 10% mannitol solution was added. Then, 58.4 g±0.05 g of the 1M HCl solution was added to the 2 L Schott bottle and stirred for approximately 10 minutes. The solution prepared in the 2 L Schott bottle was purged with nitrogen which was continued throughout the manufacturing process. 30.22 g of Compound I (free base) was weighed then added to the 2 L Schott bottle containing 10% mannitol solution and 1 M HCl solution with continual magnetic stirring. The container used to weigh Compound I was rinsed with 3×10 mL of WFI and added to the Schott bottle. After Compound I dissolved (approximately 40 minutes), additional 650 g of WFI was added to the Schott bottle and the solution was stirred for approximately 10 minutes. The pH of the Compound I solution (in Schott bottle) was measured then adjusted to pH 4.5±0.1 using 1 M HCl solution. After each addition of 1 M HCl solution, the solution was stirred for several minutes prior to verifying the pH. Once the pH was adjusted, nitrogen purging was stopped. The pH adjusted Compound I solution was further diluted with WFI to a target weight of 2040 g±1.0 g and stirred.
The final solution (pH adjusted and diluted) was filtered (chain including PVD Fmembrane filter 0.45 μm and 0.22 μm; peristaltic filtration pump by Watson Marlow) in the Bigneat and the bottle containing the filtered solution was sealed. The filtered solution was pumped (Watson Marlow Flexicon PF6-B pump; 100 RPM) into 30 mL Schott Clear Glass vials (10.0 mL filtered solution each). The glass vials were partially stoppered with 20 mm Freeze Dry Stopper Flurotec (Daikyo Seiko) one vial at a time with sterilized utensils inside a fume hood (Envair B101+1.5R) and placed on freeze dryer trays. The freeze dryer trays were transferred into freeze dry chamber and vial probe was positioned (Lyostar II; FTS Kinetics). Lyophilization was performed using the lyophilization cycle listed below. After lyophilization cycle finished, the vials were back filled with N2 and the stopper was placed in situ, wiped down with isopropanol in the fume hood once removed from the freeze dryer, reconciled, then crimped. Seven vials out of 186 sample vials placed under the lyophilization cycle had smashed in the freeze dryer.
Sample Preparation—Method B (dissolved oxygen content ≤1 ppm): 2 L WFI was poured into a Schott bottled and degassed for 30 minutes with N2 until dissolved oxygen content was ≤1 ppm (dissolved oxygen meter and probe; Mettler Toledo). 10% Mannitol solution was prepared by adding […] of mannitol and 1000 mL of degassed WFI to a tared 2 L Schott bottle containing a magnetic stirrer and wrapped in aluminum foil. To the Schott bottle containing mannitol, 15 mL of 2M HCl was added and stirred for approximately 10 minutes. The resulting solution was sparged with N2 while stirring until dissolved oxygen content was ≤1 ppm (approx. 30 min). […]

[1] = Method A sample, 2-8° C./ambient % RH, 1 month
[2] = Method A sample, 2-8° C./ambient % RH, 2 months
[3] = Method A sample, 2-8° C./ambient % RH, 3 months
[4] = Method A sample, 2-8° C./ambient % RH, 6 months
[5] = Method A sample, 2-8° C./ambient % RH, 9 months
[6] = Method A sample, 2-8° C./ambient % RH, 12 months
[7] = Method A sample, 2-8° C./ambient % RH, 18 months
[8] = Method A sample, 2-8° C./ambient % RH, 24 months
[9] = Method A sample, 2-8° C./ambient % RH, 36 months
[10] = Method A sample, 2-8° C./ambient % RH, Initial
[11] = Method B sample, 5° C, 3 months
[12] = Method B sample, 5° C, 6 months

## Cc1cnc(CNC(=O)c2c(=O)c3ccc(N4CCCN(C)CC4)nc3n3c2sc2ccccc23)cn1 [Compound I, 2-(4-Methyl-[1,4]diazepan-1-yl)-5-oxo-5H-7-thia-1,11b-diaza-benzo[c]fluorene-6-carboxylic acid (5-methyl-pyrazin-2-ylmethyl)-amide]
[1]
  Appearance: White powder
  Appearance (Reconstituted Solution): Clear, colorless
  Compound I by HPLC assay: 101%
  Reconstitution Time: 54 s
  Related Substances RRT 0.83: RRT 0.83: 0.41%
  Related Substances RRT 0.88: RRT 0.88: 0.05%
  Related Substances RRT 0.95A: RRT 0.95A: 0.10%
  Related Substances RRT 0.95B: RRT 0.95B: 0.06%
  Related Substances RRT 1.05: RRT 1.05: 0.18%
  Related Substances RRT 1.08: RRT 1.08: 0.17%
  Related Substances Total: Total: 1.0%
  Water Content: 0.16%
  pH: 4.56
[2]
  Appearance: White powder
  Appearance (Reconstituted Solution): Clear, colorless
  Compound I by HPLC assay: 101%
  Reconstitution Time: 55 s
  Related Substances RRT 0.88: RRT 0.88: 0.06%
  Related Substances RRT 0.95B: RRT 0.95B: 0.06%
  Related Substances RRT 1.05: RRT 1.05: 0.17%
  Related Substances RRT 1.07: RRT 1.07: 0.15%
  Related Substances Total: Total: 0.4%
  Water Content: 0.20%
  pH: 4.51
[3]
  Appearance: White powder
  Appearance (Reconstituted Solution): Clear, colorless
  Compound I by HPLC assay: 102%
  Reconstitution Time: 41 s
  Related Substances RRT 0.88: RRT 0.88: 0.05%
  Related Substances RRT 0.95A: RRT 0.95A: 0.05%
  Related Substances RRT 0.95B: RRT 0.95B: 0.06%
  Related Substances RRT 0.96: RRT 0.96: 0.06%
  Related Substances RRT 1.05: RRT 1.05: 0.16%
  Related Substances RRT 1.07: RRT 1.07: 0.20%
  Related Substances Total: Total: 0.6%
  Water Content: 0.16%
  pH: 4.45
[4]
  Appearance: White powder
  Appearance (Reconstituted Solution): Clear, colorless
  Compound I by HPLC assay: 100%
  Related Substances RRT 0.88: RRT 0.88: 0.09%
  Related Substances RRT 0.89: RRT 0.89: 0.05%
  Related Substances RRT 0.95B: RRT 0.95B: 0.08%
  Related Substances RRT 0.96: RRT 0.96: 0.07%
  Related Substances RRT 1.05: RRT 1.05: 0.17%
  Related Substances RRT 1.07: RRT 1.07: 0.28%
  Related Substances Total: Total: 0.7%
  Water Content: 0.64%
  pH: 4.25
[5]
  Appearance: White powder
  Appearance (Reconstituted Solution): Clear, colorless
  Compound I by HPLC assay: 100%
  Related Substances RRT 0.88: RRT 0.88: 0.06%
  Related Substances RRT 0.95B: RRT 0.95B: 0.06%
  Related Substances RRT 0.96: RRT 0.96: 0.05%
  Related Substances RRT 0.97: RRT 0.97: 0.07%
  Related Substances RRT 1.05: RRT 1.05: 0.17%
  Related Substances RRT 1.07: RRT 1.07: 0.27%
  Related Substances Total: Total: 0.7%
  Water Content: 0.17%
  pH: 4.46
[6]
  Appearance: White powder
  Appearance (Reconstituted Solution): Clear, colorless
  Compound I by HPLC assay: 101%
  Related Substances RRT 0.88: RRT 0.88: 0.09%
  Related Substances RRT 0.89: RRT 0.89: 0.07%
  Related Substances RRT 0.95B: RRT 0.95B: 0.05%
  Related Substances RRT 0.96: RRT 0.96: 0.10%
  Related Substances RRT 0.97: RRT 0.97: 0.11%
  Related Substances RRT 1.05: RRT 1.05: 0.17%
  Related Substances RRT 1.07: RRT 1.07: 0.45%
  Related Substances Total: Total: 1.0%
  Water Content: 0.20%
  pH: 4.47
[7]
  Appearance: White powder
  Appearance (Reconstituted Solution): Clear, colorless
  Compound I by HPLC assay: 98%
  Related Substances RRT 0.88: RRT 0.88: 0.05%
  Related Substances RRT 0.95B: RRT 0.95B: 0.05%
  Related Substances RRT 0.96: RRT 0.96: 0.06%
  Related Substances RRT 0.97: RRT 0.97: 0.07%
  Related Substances RRT 1.04: RRT 1.04: 0.05%
  Related Substances RRT 1.05: RRT 1.05: 0.17%
  Related Substances RRT 1.07: RRT 1.07: 0.20%
  Related Substances Total: Total: 0.6%
  Water Content: 0.24%
  pH: 4.23
[8]
  Appearance: White powder
  Appearance (Reconstituted Solution): Clear, colorless
  Compound I by HPLC assay: 99%
  Related Substances RPT 0.88: RPT 0.88: 0.06%
  Related Substances RPT 0.95B: RPT 0.95B: 0.05%
  Related Substances RPT 0.96: RPT 0.96: 0.06%
  Related Substances RPT 0.97: RPT 0.97: 0.08%
  Related Substances RRT 0.89: RRT 0.89: 0.05%
  Related Substances RRT 1.05: RRT 1.05: 0.17%
  Related Substances RRT 1.07: RRT 1.07: 0.29%
  Related Substances Total: Total: 0.8%
  Water Content: 0.21%
  pH: 4.37
[9]
  Appearance: White powder
  Appearance (Reconstituted Solution): Clear, colorless
  Compound I by HPLC assay: 101%
  Related Substances RRT 0.88: RRT 0.88: 0.06%
  Related Substances RRT 0.96: RRT 0.96: 0.06%
  Related Substances RRT 0.97: RRT 0.97: 0.06%
  Related Substances RRT 1.05: RRT 1.05: 0.18%
  Related Substances RRT 1.07: RRT 1.07: 0.24%
  Related Substances Total: Total: 0.6%
  Water Content: 0.28%
  pH: 4.48
[10]
  Appearance: White powder
  Appearance (Reconstituted Solution): Clear, colorless
  Compound I by HPLC assay: 101.5%
  Related Substances RRT 1.05: RRT 1.05: 0.18%
  Related Substances RRT 1.06: RRT 1.06: 0.08%
  Related Substances RRT 1.08: RRT 1.08: 0.06%
  Related Substances Total: Total: 0.3%
  Water Content: 0.14%
  pH: 4.45
Method B sample, 5° C, 1 month
  Appearance: White powder
  Appearance (Reconstituted Solution): Clear, colorless
  Compound I by HPLC assay: 99.5%
  Reconstitution Time: 60 s
  Related Substances RRT 1.06: RRT 1.06: 0.16%
  Related Substances RRT 1.08: RRT 1.08: 0.06%
  Related Substances RRT 1.22: RRT 1.22: 0.05%
  Related Substances Total: Total: 0.3%
  Water Content USP<921 Method 1c>: 1.51%
  pH (USP<791>): 4.4
[11]
  Appearance: Off-white powder
  Appearance (Reconstituted Solution): Clear, colorless
  Compound I by HPLC assay: 101.2%
  Related Substances RRT 0.17: RRT 0.17: 0.05%
  Related Substances RRT 1.04: RRT 1.04: 0.08%
  Related Substances RRT 1.05: RRT 1.05: 0.19%
  Related Substances Total: Total: 0.3%
  Water Content USP<921 Method 1c>: 1.19%
  pH (USP<791>): 4.5
[12]
  Appearance: Off-white powder
  Appearance (Reconstituted Solution): Clear, colorless
  Compound I by HPLC assay: 100.7%
  Related Substances RRT 1.05: RRT 1.05: 0.13%
  Related Substances Total: Total: 0.1%
  Water Content USP<921 Method 1c>: 1.25%
  pH (USP<791>): 4.5
Method B sample, 5° C, Initial
  Appearance: White powder
  Appearance (Reconstituted Solution): Clear, colorless
  Compound I by HPLC assay: 100.2%
  Related Substances RRT 0.96: RRT 0.96: 0.05%
  Related Substances RRT 1.04: RRT 1.04: 0.05%
  Related Substances RRT 1.06: RRT 1.06: 0.17%
  Related Substances RRT 1.08: RRT 1.08: 0.06%
  Related Substances Total: Total:0.3%
  Water Content USP<921 Method 1c>: 1.12%
